{"source": "patent US20030082215A1", "about": "(priority 1999, published 2003)", "origin": "cited, not measured here", "note": "Like-named read-outs stand apart in the source and are kept apart here.", "data": [{"smiles": "CC(C)OC(=O)C(C)(C)Oc1ccc(C(=O)c2ccc(Cl)cc2)cc1", "note": "[fenofibrate]", "values": [{"measurement": "bioavailability", "setting": "conventional gelatin capsule form, after meals", "value": 89, "unit": "%"}, {"measurement": "bioavailability", "setting": "conventional gelatin capsule form, on an empty stomach", "value": 26, "unit": "%"}, {"measurement": "bioavailability", "setting": "gelatin capsule containing a 300 mg dose, healthy volunteers", "value": "~30", "unit": "%"}]}]}
